Experimental data published in EP1988087A1, “Novel 5-cyano-prostacyclin derivatives and their use as agents for the treatment of autoimmune diseases” (Bayer Schering Pharma Aktiengesellschaft, priority 2007, dated 2008).

Biological target: EP4 receptor (Homo sapiens, UniProt P35408)
Experiment: cAMP accumulation assay in cells expressing EP4 (Biological Example 1, diol derivative)
Type: cell-based
Conditions: cAMP luminescence, mean of triplicate
Experimental: Commercial cAMP accumulation assays are typically competitive immunoassays in which free cAMP from cell lysates competes for antibody binding against a "labeled" cAMP molecule. This positive signal is generated in direct proportion to the amount of free cAMP. In our assays cAMP standards and samples are pipetted into the wells of a microplate. An antibody specific cAMP is added to the wells. A substrate is added to the wells and luminescence develops in proportion to the amount of cAMP which accumulated during treatment of cells which express the EP4 receptor with standards and samples. The intensity of the luminescence is measured in a luminometer.
The response of the EP4 expressing cells treated with the diol derivative is compared to Nileprost. Results shown are the mean of triplicate determinations.

Chain of EP4 receptor (P35408 whole entry): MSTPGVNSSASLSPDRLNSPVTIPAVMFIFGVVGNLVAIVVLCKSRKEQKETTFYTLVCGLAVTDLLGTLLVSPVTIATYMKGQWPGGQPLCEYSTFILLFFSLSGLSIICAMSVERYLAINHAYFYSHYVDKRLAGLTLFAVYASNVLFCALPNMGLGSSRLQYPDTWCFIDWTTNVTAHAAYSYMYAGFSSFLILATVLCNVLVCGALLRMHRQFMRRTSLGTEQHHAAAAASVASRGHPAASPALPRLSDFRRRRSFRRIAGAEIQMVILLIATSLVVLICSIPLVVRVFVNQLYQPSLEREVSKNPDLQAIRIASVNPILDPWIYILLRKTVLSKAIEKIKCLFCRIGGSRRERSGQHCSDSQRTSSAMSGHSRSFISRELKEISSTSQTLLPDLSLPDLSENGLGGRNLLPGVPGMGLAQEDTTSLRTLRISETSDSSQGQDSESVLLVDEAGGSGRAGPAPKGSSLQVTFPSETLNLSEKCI

- RLU - background (compound 0.010 nM): 0 RLU
- RLU - background (compound 0.152 nM): 850786 RLU
- RLU - background (compound 0.457 nM): 1291900 RLU
- RLU - background (compound 1.372 nM): 1521826 RLU
- RLU - background (compound 4.115 nM): 1626762 RLU
- RLU - background (compound 12.346 nM): 1589698 RLU
- RLU - background (compound 37.037 nM): 1312998 RLU
- RLU - background (compound 111.111 nM): 1258626 RLU
- RLU - background (compound 333.333 nM): 1648306 RLU
- RLU - background (compound 1000.000 nM): 1635488 RLU
- RLU - background (compound 3000.000 nM): 1625442 RLU
- RLU - background (compound 9000.000 nM): 1599712 RLU
SMILES: CCCCC(C)[C@H](O)/C=C/[C@@H]1[C@H]2C/C(=C(\C#N)CCCC(=O)O)O[C@H]2C[C@H]1O (stereo partly drawn) [Nileprost, 5-cyano-16-methylprostacyclin]
